Experimental data reported in patent publication US11667602B2, “Compounds and their use” (AstraZeneca AB, priority 2020, dated 2023).

Assay: Human Plasma Protein Binding (Test B)
Format: in vitro ADME
Conditions: fraction unbound (fu)
Summary of the method: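 Values given as % free (fu) in human plasma, using the method of Wernevik et al. (2020). For compounds tested more than once, the arithmetic mean is given.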

Compound | Test B Human Plasma Protein Binding (% free)
COc1cc(F)c(O[C@H]2CC[C@@](C)(C(=O)O)CC2)cc1C(=O)N[C@@H]1[C@H]2CC[C@H](C2)[C@@H]1C(=O)Nc1cccc(S(=O)(=O)C(F)(F)F)c1 [Example 208, (1S,4s)-4-(2-Fluoro-4-methoxy-5-(((1S,2R,3S,4R)-3-((3-((trifluoromethyl)sulfonyl)phenyl)carbamoyl)bicyclo[2.2.1]heptan-2-yl)carbamoyl)phenoxy)-1-methylcyclohexane-1-carboxylic acid] | 1
COc1cc(F)c(O[C@H]2CC[C@@](C)(C(=O)O)CC2)cc1C(=O)N[C@@H]1[C@H]2CC[C@H](C2)[C@@H]1C(=O)Nc1ccc(F)c(S(F)(F)(F)(F)F)c1 [Example 353] | <0.23
COc1cc(F)c(O[C@H]2CC[C@@H](C(=O)O)CC2)cc1C(=O)N[C@@H]1[C@H]2CC[C@H](C2)[C@@H]1C(=O)Nc1ccc(F)c(S(F)(F)(F)(F)F)c1 [Example 433] | 0.38
COc1cc(F)c(-c2ccc(C(=O)O)cc2)cc1C(=O)N[C@H]1[C@@H](C(=O)Nc2cccc(S(=O)(=O)C(F)(F)F)c2)[C@@H]2C=C[C@H]1C2 (single isomer, unassigned) [Example 552] | 0.060
